Patent publication US8741944B2, “Anti-infective agents against intracellular pathogens” (priority 2007, dated 2014)

How the values were obtained:
M14 (Melanoma) = assay: NCI DTP tumor cell line screen (SRB), M14
Description: (§1) For a typical screening experiment, cells are inoculated into 96 well microtiter plates in 100 μL at plating densities ranging from 5,000 to 40,000 cells/well depending on the doubling time of individual cell lines. After cell inoculation, the microtiter plates are incubated at 37° C., 5% CO2, 95% air and 100% relative humidity for 24 h prior to addition of experimental drugs.
(§2) After 24 h, two plates of each cell line are fixed in situ with TCA, to represent a measurement of the cell population for each cell line at the time of drug addition (Tz). Experimental drugs are solubilized in dimethyl sulfoxide at 400-fold the desired final maximum test concentration and stored frozen prior to use. At the time of drug addition, an aliquot of frozen concentrate is thawed and diluted to twice the desired final maximum test concentration with complete medium containing 50 μg/ml gentamicin. Additional four, 10-fold or ½ log serial dilutions are made to provide a total of five drug concentrations plus control. Aliquots of 100 μl of these different drug dilutions are added to the appropriate microtiter wells already containing 100 μl of medium, resulting in the required final drug concentrations.
(§3) Following drug addition, the plates are incubated for an additional 48 h at 37° C., 5% CO2, 95% air, and 100% relative humidity. For adherent cells, the assay is terminated by the addition of cold TCA. Cells are fixed in situ by the gentle addition of 50 μl of cold 50% (w/v) TCA (final concentration, 10% TCA) and incubated for 60 minutes at 4° C. The supernatant is discarded, and the plates are washed five times with tap water and air dried. Sulforhodamine B (SRB) solution (1001) at 0.4% (w/v) in 1% acetic acid is added to each well, and plates are incubated for 10 minutes at room temperature. After staining, unbound dye is removed by washing five times with 1% acetic acid and the plates are air dried. Bound stain is subsequently solubilized with 10 mM trizma base, and the absorbance is read on an automated plate reader at a wavelength of 515 nm. For suspension cells, the methodology is the same except that the assay is terminated by fixing settled cells at the bottom of the wells by gently adding 50 μl of 80% TCA (final concentration, 16% TCA). Using the seven absorbance measurements [time zero, (Tz), control growth, (C), and test growth in the presence of drug at the five concentration levels (Ti)], the percentage growth is calculated at each of the drug concentrations levels. Percentage growth inhibition is calculated as: [(Ti−Tz)/(C−Tz)]×100 for concentrations for which Ti>/=Tz [(Ti−Tz)/Tz]×100 for concentrations for which Ti<Tz
(§4) Three dose response parameters are calculated for each experimental agent. […] The drug concentration resulting in total growth inhibition (TGI) is calculated from Ti=Tz. […] Values are calculated for each of these three parameters if the level of activity is reached; however, if the effect is not reached or is exceeded, the value for that parameter is expressed as greater or less than the maximum or minimum concentration tested.

KM12 (Colon Cancer) = assay: NCI DTP tumor cell line screen (SRB), KM12
Description: as §1, §2, §3, §4

ACHN (Renal Cancer) = assay: NCI DTP tumor cell line screen (SRB), ACHN
Description: as §1, §2, §3, §4

MCF7 (Breast Cancer) = assay: NCI DTP tumor cell line screen (SRB), MCF7
Description: as §1, §2, §3, §4

786-0 (Renal Cancer) = assay: NCI DTP tumor cell line screen (SRB), 786-0
Description: as §1, §2, §3, §4

TK-10 (Renal Cancer) = assay: NCI DTP tumor cell line screen (SRB), TK-10
Description: as §1, §2, §3, §4

T-47D (Breast Cancer) = assay: NCI DTP tumor cell line screen (SRB), T-47D
Description: as §1, §2, §3, §4

[1] = test system: HOP-62 (Non-Small Cell Lung Cancer); assay: NCI DTP tumor cell line screen (SRB), HOP-62
Description: as §1, §2, §3, §4

[2] = test system: HOP-92 (Non-Small Cell Lung Cancer); assay: NCI DTP tumor cell line screen (SRB), HOP-92
Description: as §1, §2, §3, §4

IGROV1 (Ovarian Cancer) = assay: NCI DTP tumor cell line screen (SRB), IGROV1
Description: as §1, §2, §3, §4

OVCAR-5 (Ovarian Cancer) = assay: NCI DTP tumor cell line screen (SRB), OVCAR-5
Description: as §1, §2, §3, §4

RXF 393 (Renal Cancer) = assay: NCI DTP tumor cell line screen (SRB), RXF 393
Description: as §1, §2, §3, §4

COLO 205 (Colon Cancer) = assay: NCI DTP tumor cell line screen (SRB), COLO 205
Description: as §1, §2, §3, §4

SK-MEL-5 (Melanoma) = assay: NCI DTP tumor cell line screen (SRB), SK-MEL-5
Description: as §1, §2, §3, §4

[3] = test system: MDA-MB-435 (Breast Cancer); assay: NCI DTP tumor cell line screen (SRB), MDA-MB-435
Description: as §1, §2, §3, §4

[4] = test system: MDA-MB-231/ATCC (Breast Cancer); assay: NCI DTP tumor cell line screen (SRB), MDA-MB-231/ATCC
Description: as §1, §2, §3, §4

Q: How did the GI50 (M14 (Melanoma)) turn out when “4-[5-(2-Phenanthrenyl)-3-(trifluoromethyl)-1H-pyrazol-1-yl]-phenyl -guanidine [Compound 71]” was run?
A: 1480 nM

Q: And the TGI (M14 (Melanoma))?
A: 2.80E−06

Q: What about the “Percent Growth” value (M14 (Melanoma); Log10 Concentration −4.0) of the same substance?
A: −33%

Q: What about the “Percent Growth” value (M14 (Melanoma); Log10 Concentration −5.0) of the same substance?
A: −100%

Q: And the “Percent Growth” value (M14 (Melanoma); Log10 Concentration −7.0)?
A: 82%

Q: What about the GI50 (KM12 (Colon Cancer)) of the same substance?
A: 1590 nM

Q: And the TGI (KM12 (Colon Cancer))?
A: 2.97E−06

Q: What about the “Percent Growth” value (KM12 (Colon Cancer); Log10 Concentration −4.0) of the same substance?
A: −43%

Q: And the “Percent Growth” value (KM12 (Colon Cancer); Log10 Concentration −5.0)?
A: −98%

Q: What about the “Percent Growth” value (KM12 (Colon Cancer); Log10 Concentration −7.0) of the same substance?
A: 91%

Q: And the “Percent Growth” value (KM12 (Colon Cancer); Log10 Concentration −8.0)?
A: 94%

Q: And the GI50 (ACHN (Renal Cancer))?
A: 1670 nM

Q: And the TGI (ACHN (Renal Cancer))?
A: 3.15E−06

Q: And the “Percent Growth” value (ACHN (Renal Cancer); Log10 Concentration −4.0)?
A: −22%

Q: And the “Percent Growth” value (ACHN (Renal Cancer); Log10 Concentration −5.0)?
A: −91%

Q: And the “Percent Growth” value (ACHN (Renal Cancer); Log10 Concentration −6.0)?
A: 90%

Q: What about the “Percent Growth” value (ACHN (Renal Cancer); Log10 Concentration −8.0) of the same substance?
A: 80%

Q: And the GI50 (MCF7 (Breast Cancer))?
A: 1820 nM

Q: And the TGI (MCF7 (Breast Cancer))?
A: 3.44E−06

Q: And the “Percent Growth” value (MCF7 (Breast Cancer); Log10 Concentration −4.0)?
A: −49%

Q: What about the “Percent Growth” value (MCF7 (Breast Cancer); Log10 Concentration −6.0) of the same substance?
A: 97%

Q: And the “Percent Growth” value (MCF7 (Breast Cancer); Log10 Concentration −7.0)?
A: 82%

Q: What about the GI50 (786-0 (Renal Cancer)) of the same substance?
A: 1490 nM

Q: What about the TGI (786-0 (Renal Cancer)) of the same substance?
A: 2.91E−06

Q: And the “Percent Growth” value (786-0 (Renal Cancer); Log10 Concentration −4.0)?
A: −30%

Q: And the “Percent Growth” value (786-0 (Renal Cancer); Log10 Concentration −6.0)?
A: 80%

Q: And the GI50 (TK-10 (Renal Cancer))?
A: 1320 nM

Q: What about the TGI (TK-10 (Renal Cancer)) of the same substance?
A: 2.59E−06

Q: And the “Percent Growth” value (TK-10 (Renal Cancer); Log10 Concentration −4.0)?
A: −64%

Q: And the “Percent Growth” value (TK-10 (Renal Cancer); Log10 Concentration −5.0)?
A: −100%

Q: And the “Percent Growth” value (TK-10 (Renal Cancer); Log10 Concentration −6.0)?
A: 71%

Q: And the “Percent Growth” value (TK-10 (Renal Cancer); Log10 Concentration −7.0)?
A: 90%

Q: What about the “Percent Growth” value (TK-10 (Renal Cancer); Log10 Concentration −8.0) of the same substance?
A: 78%

Q: What about the GI50 (T-47D (Breast Cancer)) of the same substance?
A: < 10 nM

Q: And the TGI (T-47D (Breast Cancer))?
A: 1.98E−06

Q: What about the “Percent Growth” value (T-47D (Breast Cancer); Log10 Concentration −4.0) of the same substance?
A: −53%

Q: What about the “Percent Growth” value (T-47D (Breast Cancer); Log10 Concentration −5.0) of the same substance?
A: −76%

Q: What about the “Percent Growth” value (T-47D (Breast Cancer); Log10 Concentration −6.0) of the same substance?
A: 32%

Q: And the “Percent Growth” value (T-47D (Breast Cancer); Log10 Concentration −7.0)?
A: 47%

Q: And the “Percent Growth” value (T-47D (Breast Cancer); Log10 Concentration −8.0)?
A: 36%

Q: And the GI50 [1]?
A: 1720 nM

Q: And the “Percent Growth” value ([1]; Log10 Concentration −4.0)?
A: −36%

Q: And the “Percent Growth” value ([1]; Log10 Concentration −5.0)?
A: −98%

Q: What about the “Percent Growth” value ([1]; Log10 Concentration −7.0) of the same substance?
A: 97%

Q: And the “Percent Growth” value ([1]; Log10 Concentration −8.0)?
A: 100%

Q: What about the GI50 [2] of the same substance?
A: 1010 nM

Q: What about the TGI [2] of the same substance?
A: 2.26E−06

Q: What about the “Percent Growth” value ([2]; Log10 Concentration −4.0) of the same substance?
A: −28%

Q: What about the “Percent Growth” value ([2]; Log10 Concentration −5.0) of the same substance?
A: −92%

Q: What about the “Percent Growth” value ([2]; Log10 Concentration −6.0) of the same substance?
A: 50%

Q: And the “Percent Growth” value ([2]; Log10 Concentration −7.0)?
A: 82%

Q: And the GI50 (IGROV1 (Ovarian Cancer))?
A: 1070 nM

Q: And the TGI (IGROV1 (Ovarian Cancer))?
A: 2.26E−06

Q: And the “Percent Growth” value (IGROV1 (Ovarian Cancer); Log10 Concentration −4.0)?
A: −53%

Q: What about the “Percent Growth” value (IGROV1 (Ovarian Cancer); Log10 Concentration −5.0) of the same substance?
A: −100%

Q: What about the “Percent Growth” value (IGROV1 (Ovarian Cancer); Log10 Concentration −6.0) of the same substance?
A: 55%

Q: And the “Percent Growth” value (IGROV1 (Ovarian Cancer); Log10 Concentration −7.0)?
A: 83%

Q: And the “Percent Growth” value (IGROV1 (Ovarian Cancer); Log10 Concentration −8.0)?
A: 85%

Q: What about the GI50 (OVCAR-5 (Ovarian Cancer)) of the same substance?
A: 1730 nM

Q: What about the TGI (OVCAR-5 (Ovarian Cancer)) of the same substance?
A: 3.11E−06

Q: What about the “Percent Growth” value (OVCAR-5 (Ovarian Cancer); Log10 Concentration −4.0) of the same substance?
A: −8%

Q: And the “Percent Growth” value (OVCAR-5 (Ovarian Cancer); Log10 Concentration −5.0)?
A: −100%

Q: And the “Percent Growth” value (OVCAR-5 (Ovarian Cancer); Log10 Concentration −6.0)?
A: 97%

Q: What about the “Percent Growth” value (OVCAR-5 (Ovarian Cancer); Log10 Concentration −8.0) of the same substance?
A: 95%

Q: What about the TGI (RXF 393 (Renal Cancer); RXF 383) of the same substance?
A: 2.91E−06

Q: What about the “Percent Growth” value (RXF 393 (Renal Cancer); RXF 383, Log10 Concentration −4.0) of the same substance?
A: −4%

Q: What about the “Percent Growth” value (RXF 393 (Renal Cancer); RXF 383, Log10 Concentration −6.0) of the same substance?
A: 53%

Q: And the “Percent Growth” value (RXF 393 (Renal Cancer); RXF 383, Log10 Concentration −7.0)?
A: 53%

Q: What about the “Percent Growth” value (RXF 393 (Renal Cancer); RXF 383, Log10 Concentration −8.0) of the same substance?
A: 42%

Q: What about the GI50 (COLO 205 (Colon Cancer)) of the same substance?
A: 1360 nM

Q: What about the TGI (COLO 205 (Colon Cancer)) of the same substance?
A: 2.69E−06

Q: What about the “Percent Growth” value (COLO 205 (Colon Cancer); Log10 Concentration −4.0) of the same substance?
A: −32%

Q: What about the “Percent Growth” value (COLO 205 (Colon Cancer); Log10 Concentration −6.0) of the same substance?
A: 73%

Q: What about the “Percent Growth” value (COLO 205 (Colon Cancer); Log10 Concentration −7.0) of the same substance?
A: 83%

Q: What about the “Percent Growth” value (COLO 205 (Colon Cancer); Log10 Concentration −8.0) of the same substance?
A: 95%

Q: And the GI50 (SK-MEL-5 (Melanoma))?
A: 2220 nM

Q: And the TGI (SK-MEL-5 (Melanoma))?
A: 4.07E−06

Q: What about the “Percent Growth” value (SK-MEL-5 (Melanoma); Log10 Concentration −4.0) of the same substance?
A: −34%

Q: What about the “Percent Growth” value (SK-MEL-5 (Melanoma); Log10 Concentration −6.0) of the same substance?
A: 116%

Q: What about the “Percent Growth” value (SK-MEL-5 (Melanoma); Log10 Concentration −7.0) of the same substance?
A: 111%

Q: What about the “Percent Growth” value (SK-MEL-5 (Melanoma); Log10 Concentration −8.0) of the same substance?
A: 97%

Q: And the GI50 [3]?
A: 1700 nM

Q: What about the TGI [3] of the same substance?
A: 3.07E−06

Q: And the “Percent Growth” value ([3]; Log10 Concentration −4.0)?
A: −27%

Q: What about the “Percent Growth” value ([3]; Log10 Concentration −5.0) of the same substance?
A: −100%

Q: And the “Percent Growth” value ([3]; Log10 Concentration −6.0)?
A: 95%

Q: And the TGI [4]?
A: 1.66E−06

Q: What about the “Percent Growth” value ([4]; Log10 Concentration −4.0) of the same substance?
A: −39%

Q: And the “Percent Growth” value ([4]; Log10 Concentration −5.0)?
A: −98%

Q: And the “Percent Growth” value ([4]; Log10 Concentration −6.0)?
A: 27%

Q: What about the “Percent Growth” value ([4]; Log10 Concentration −7.0) of the same substance?
A: 78%

Q: What about the “Percent Growth” value ([4]; Log10 Concentration −8.0) of the same substance?
A: 47%
